According to patent US7462600B2, “Macrolides” (Pfizer Inc, priority 2004, dated 2008):
≈ marks a conversion by molar mass, not a printed value. Read-outs that look alike come from different tables or passages of the source.

Legend:
Type in all cases: cell-based
[1] = system: Streptococcus pyogenes 1079; experiment: MIC, microtiter broth dilution (NCCLS M100-S14), S. pyogenes 1079 (ermB)
How it was run: (§1)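 Microtiter broth dilution; interpretation per NCCLS M100-S14; endpoint = MIC. Stock: 40 mg/ml in DMSO.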

[2] = system: Haemophilus influenzae 1218; experiment: MIC, microtiter broth dilution (NCCLS M100-S14), H. influenzae 1218 (susceptible)
How it was run: as §1

[3] = system: Streptococcus pneumoniae 1175; conditions: microtiter broth dilution
How it was run: as §1

[4] = system: Streptococcus pneumoniae 1095; conditions: microtiter broth dilution
How it was run: as §1

[5] = system: Streptococcus pneumoniae 1016; experiment: MIC, microtiter broth dilution (NCCLS M100-S14), S. pneumoniae 1016 (susceptible)
How it was run: as §1

[6] = H. influenzae 1218 (susceptible)
[7] = S. pneumoniae 1016 (susceptible)

Row | Structure (SMILES) | MIC S. pyogenes 1079 ([1]; S. pyogenes 1079 (ermB)) | MIC H. influenzae 1218 [2, 6] | MIC S. pneumo. 1175 ([3]; S. pneumoniae 1175 (mefA)) | MIC S. pneumo. 1095 ([4]; S. pneumoniae 1095 (ermB)) | MIC S. pneumo. 1016 [5, 7] | MIC S. pyogenes 1079 ([1]; Streptococcus pyogenes 1079) | MIC H. influenzae 1218 ([2]; Haemophilus influenzae 1218) | MIC S. pneumo. 1175 ([3]; Streptococcus pneumoniae 1175) | MIC S. pneumo. 1095 ([4]; Streptococcus pneumoniae 1095) | MIC S. pneumo. 1016 ([5]; Streptococcus pneumoniae 1016)
1 | CCC1OC(=O)C(C)C(=O)C(C)C(OC2OC(C)CC(N(C)C)C2O)C(C)(OC)CC(C)C(=O)C(C)C2N(CC3CCN(Cc4c[nH]c5ncccc45)C3)C(=O)OC12C [Example 11.05, 3-descladinosyl-11,12-dideoxy-6-O-methyl-3-oxo-12,11-(oxycarbonyl-(1-((1H-pyrrolo[2,3-b]pyridin-3-yl)-methyl)-((S)-pyrrolidin-3-yl)-methyl)-imino)-erythromycin A] | 4 µg/mL (≈ 4.84 µM) | 0.5 µg/mL (≈ 0.605 µM) | 0.5 µg/mL (≈ 0.605 µM) | <0.06 µg/mL | <0.06 µg/mL |  |  |  |  | 
2 | CCC1OC(=O)C(C)C(=O)C(C)C(OC2OC(C)CC(N(C)C)C2O)C(C)(OC)CC(C)C(=O)C(C)C2N(C3CN(S(=O)(=O)c4ccc(-n5cncn5)cc4)C3)C(=O)OC12C (stereo not shown) [Example 3.52, 3-descladinosyl-11,12-dideoxy-6-O-methyl-3-oxo-12,11-(oxycarbonyl-(1-(4-(1H-1,2,4-triazol-1-yl)benzenesulfonyl)-azetidin-3-yl)-imino)-erythromycin A] |  |  |  |  |  | 4 µg/mL (≈ 4.57 µM) | 2 µg/mL (≈ 2.29 µM) | 0.12 µg/mL (≈ 0.137 µM) | 0.12 µg/mL (≈ 0.137 µM) | <0.06 µg/mL
3 | CCC1OC(=O)C(C)C(=O)C(C)C(OC2OC(C)CC(N(C)C)C2O)C(C)(OC)CC(C)C(=O)C(C)C2N(C3CN(S(=O)(=O)c4ccc(OC)cc4OC)C3)C(=O)OC12C (stereo not shown) [Example 3.31, 3-descladinosyl-11,12-dideoxy-6-O-methyl-3-oxo-12,11-(1-(oxycarbonyl-(2,4-dimethoxybenzenesulfonyl)-azetidin-3-yl)-imino)-erythromycin A] |  |  |  |  |  | 4 µg/mL (≈ 4.61 µM) | 0.5 µg/mL (≈ 0.576 µM) | 0.12 µg/mL (≈ 0.138 µM) | 2 µg/mL (≈ 2.3 µM) | <0.06 µg/mL
4 | CCC1OC(=O)C(C)C(=O)C(C)C(OC2OC(C)CC(N(C)C)C2O)C(C)(OC)CC(C)C(=O)C(C)C2N(C3CN(Cc4ccccc4)C3)C(=O)OC12C (stereo not shown) [Example 1.01, benzyl] |  |  |  |  |  | >64.00 µg/mL | 0.5 µg/mL (≈ 0.66 µM) | 0.12 µg/mL (≈ 0.158 µM) | <0.06 µg/mL | <0.06 µg/mL
5 | CCC1OC(=O)C(C)C(=O)C(C)C(OC2OC(C)CC(N(C)C)C2O)C(C)(OC)CC(C)C(=O)C(C)C2N(C3CN(Cc4ccnc5ncsc45)C3)C(=O)OC12C (stereo not shown) [Example 1.35, 3-descladinosyl-11,12-dideoxy-6-O-methyl-3-oxo-12,11-(oxycarbonyl-(1-((thiazolo[4,5-b]pyridin-7-yl)-methyl)-azetidin-3-yl)-imino)erythromycin A] |  |  |  |  |  | 4 µg/mL (≈ 4.9 µM) | 1 µg/mL (≈ 1.23 µM) | 0.12 µg/mL (≈ 0.147 µM) | <0.06 µg/mL | <0.06 µg/mL
6 | CCC1OC(=O)C(C)C(=O)C(C)C(OC2OC(C)CC(N(C)C)C2O)C(C)(OC)CC(C)C(=O)C(C)C2N(C3CN(Cc4c(OC)cnc5ccccc45)C3)C(=O)OC12C (stereo not shown) [Example 1.71, 3-descladinosyl-11,12-dideoxy-6-O-methyl-3-oxo-12,11-(oxycarbonyl-(1-(3-methoxyquinoline-4-methyl)-azetidin-3-yl)-imino)-erythromycin A] |  |  |  |  |  | <0.063 µg/mL | 1 µg/mL (≈ 1.19 µM) | <0.063 µg/mL | <0.063 µg/mL | <0.063 µg/mL
7 | CCC1OC(=O)C(C)C(=O)C(C)C(OC2OC(C)CC(N(C)C)C2O)C(C)(OC)CC(C)C(=O)C(C)C2N(C3CN(Cc4ccc(=O)n5ccccc45)C3)C(=O)OC12C (stereo not shown) [Example 1.82, 3-descladinosyl-11,12-dideoxy-6-O-methyl-3-oxo-12,11-(oxycarbonyl-(1-(4H-quinolizin-4-one-1-methyl)-azetidin-3-yl)-imino)-erythromycin A] |  |  |  |  |  | 4 µg/mL (≈ 4.85 µM) | 0.5 µg/mL (≈ 0.606 µM) | <0.063 µg/mL | <0.063 µg/mL | <0.063 µg/mL
8 | CCC1OC(=O)C(C)C(=O)C(C)C(OC2OC(C)CC(N(C)C)C2O)C(C)(OC)CC(C)C(=O)C(C)C2N(CC3CN(Cc4ccnc5ccccc45)C3)C(=O)OC12C (stereo not shown) [4.13] |  |  |  |  |  | 32 µg/mL (≈ 38.9 µM) | 1 µg/mL (≈ 1.22 µM) | <0.06 µg/mL | 0.5 µg/mL (≈ 0.608 µM) | <0.06 µg/mL
9 | CCC1OC(=O)C(C)C(=O)C(C)C(OC2OC(C)CC(N(C)C)C2O)C(C)(OC)CC(C)C(=O)C(C)C2N(C3CN(Cc4ccnc5ccc(OC)cc45)C3)C(=O)OC12C (stereo not shown) [Example 1.90, 3-descladinosyl-11,12-dideoxy-4-O-methyl-3-oxo-12,11-(oxycarbonyl-(1-(6-methoxyquinoline-4-methyl)-azetidin-3-yl)-imino)-erythromycin A] |  |  |  |  |  | 2 µg/mL (≈ 2.38 µM) | 2 µg/mL (≈ 2.38 µM) | <0.063 µg/mL | 0.125 µg/mL (≈ 0.149 µM) | <0.063 µg/mL
10 | CCC1OC(=O)C(C)C(=O)C(C)C(OC2OC(C)CC(N(C)C)C2O)C(C)(OC)CC(C)C(=O)C(C)C2N(CC3C4CN(C(=O)OC(C)(C)C)CC43)C(=O)OC12C (stereo not shown) [16.01] | >100.00 µg/mL | 1.56 µg/mL (≈ 1.93 µM) | 25 µg/mL (≈ 30.9 µM) | 50 µg/mL (≈ 61.9 µM) | 0.25 µg/mL (≈ 0.309 µM) |  |  |  |  | 
11 | CCC1OC(=O)C(C)C(=O)C(C)C(OC2OC(C)CC(N(C)C)C2O)C(C)(OC)CC(C)C(=O)C(C)C2N(C3CN(Cc4ccnc5ccccc45)C3)C(=O)OC12C (stereo not shown) [Example 1.16, 3-descladinosyl-11,12-dideoxy-6-O-methyl-3-oxo-12,11-(oxycarbonyl-(1-((quinolin-4-yl)-methyl)-azetidin-3-yl)-imino)-erythromycin A] |  |  |  |  |  | 4.25 µg/mL (≈ 5.25 µM) | 0.5 µg/mL (≈ 0.618 µM) | 0.25 µg/mL (≈ 0.309 µM) | <0.06 µg/mL | <0.06 µg/mL
12 | CCC1OC(=O)C(C)C(=O)C(C)C(OC2OC(C)CC(N(C)C)C2O)C(C)(OC)CC(C)C(=O)C(C)C2N(CC3CCN(Cc4ccc(OC)nc4)C3)C(=O)OC12C (stereo not shown) [11.07] | 16 µg/mL (≈ 19.6 µM) | 1 µg/mL (≈ 1.22 µM) | 0.25 µg/mL (≈ 0.306 µM) | <0.06 µg/mL | <0.06 µg/mL |  |  |  |  | 
13 | CCC1OC(=O)C(C)(F)C(=O)C(C)C(OC2OC(C)CC(N(C)C)C2O)C(C)(OC)CC(C)C(=O)C(C)C2N(CC3CCCN3C(=O)c3cc4ccccn4n3)C(=O)OC12C (stereo not shown) [10.28] | 16 µg/mL (≈ 18.6 µM) | 1 µg/mL (≈ 1.17 µM) | 0.12 µg/mL (≈ 0.14 µM) | <0.06 µg/mL | <0.06 µg/mL |  |  |  |  | 
14 | CCC1OC(=O)C(C)C(=O)C(C)C(OC2OC(C)CC(N(C)C)C2O)C(C)(OC)CC(C)C(=O)C(C)C2N(CC3CCN(Cc4cccnc4OC)C3)C(=O)OC12C (stereo not shown) [11.09] | >64.00 µg/mL | 4 µg/mL (≈ 4.9 µM) | 16 µg/mL (≈ 19.6 µM) | 4 µg/mL (≈ 4.9 µM) | <0.06 µg/mL |  |  |  |  | 
15 | CCC1OC(=O)C(C)C(=O)C(C)C(OC2OC(C)CC(N(C)C)C2O)C(C)(OC)CC(C)C(=O)C(C)C2N(CC3CCCN3C(=O)c3ccnc4[nH]cnc34)C(=O)OC12C (stereo not shown) [10.50] | >64.00 µg/mL | 8 µg/mL (≈ 9.51 µM) | 2 µg/mL (≈ 2.38 µM) | 0.5 µg/mL (≈ 0.595 µM) | <0.06 µg/mL |  |  |  |  | 
16 | CCC1OC(=O)C(C)C(=O)C(C)C(OC2OC(C)CC(N(C)C)C2O)C(C)(OC)CC(C)C(=O)C(C)C2N(CC3CN(C(=O)c4cccnc4)C3)C(=O)OC12C (stereo not shown) [4.03] |  |  |  |  |  | >100.00 µg/mL | 1.56 µg/mL (≈ 1.98 µM) | 0.78 µg/mL (≈ 0.991 µM) | 0.39 µg/mL (≈ 0.496 µM) | 0.02 µg/mL (≈ 0.0254 µM)
17 | CCC1OC(=O)C(C)C(=O)C(C)C(OC2OC(C)CC(N(C)C)C2O)C(C)(OC)CC(C)C(=O)C(C)C2N(CC3CCCN3C(=O)c3ccc4cccnc4c3)C(=O)OC12C (stereo not shown) [12.12] | >64.00 µg/mL | 2 µg/mL (≈ 2.35 µM) | 1 µg/mL (≈ 1.18 µM) | <0.06 µg/mL | <0.06 µg/mL |  |  |  |  | 
18 | CCC1OC(=O)C(C)C(=O)C(C)C(OC2OC(C)CC(N(C)C)C2O)C(C)(OC)CC(C)C(=O)C(C)C2N(C3CN(Cc4c(OC)ccc5ncccc45)C3)C(=O)OC12C (stereo not shown) [Example 1.102, 3-descladinosyl-11,12-dideoxy-6-O-methyl-3-oxo-12,11-(oxycarbonyl-(1-(6-methoxyquinoline-5-methyl)-azetidin-3-yl)-imino)-erythromycin A] |  |  |  |  |  | 1 µg/mL (≈ 1.19 µM) | 2 µg/mL (≈ 2.38 µM) | <0.063 µg/mL | <0.063 µg/mL | <0.063 µg/mL
19 | CCC1OC(=O)C(C)C(=O)C(C)C(OC2OC(C)CC(N(C)C)C2O)C(C)(OC)CC(C)C(=O)C(C)C2N(CC3CCCN3C(=O)c3cc4ccccc4cn3)C(=O)OC12C (stereo not shown) [12.09] | >64.00 µg/mL | 2 µg/mL (≈ 2.35 µM) | 1 µg/mL (≈ 1.18 µM) | 1 µg/mL (≈ 1.18 µM) | <0.06 µg/mL |  |  |  |  | 
20 | CCC1OC(=O)C(C)C(=O)C(C)C(OC2OC(C)CC(N(C)C)C2O)C(C)(OC)CC(C)C(=O)C(C)C2N(C3CN(S(=O)(=O)c4ccccc4F)C3)C(=O)OC12C (stereo not shown) [Example 3.07, 2-fluorobenzenesulfonyl] |  |  |  |  |  | 16 µg/mL (≈ 19.4 µM) | 0.5 µg/mL (≈ 0.605 µM) | <0.06 µg/mL | <0.06 µg/mL | <0.06 µg/mL
